Test results as given in ChEMBL document CHEMBL1134098, “Bioisosteric determinants for subtype selectivity of ligands for heteromeric GABA(A) receptors” (Bioorg Med Chem Lett, 2001).

Experiments:
[1] = biological target: T1, GABA-A receptor; alpha-6/beta-3/gamma-2 (Homo sapiens, UniProt P18507+P28472+Q16445); test: Antagonistic potency against human Gamma-aminobutyric acid A receptor alpha-6-beta-3-gamma-2 expressed in Xenopus oocytes at 1 mM; assay type: functional, cell-based, Oocyte
[2] = biological target: T2, GABA-A receptor; alpha-1/beta-3/gamma-2 (Homo sapiens, UniProt P14867+P18507+P28472); test: Antagonistic potency against human Gamma-aminobutyric acid A receptor alpha-1-beta-3-gamma-2 expressed in Xenopus oocytes at 1 mM; assay type: functional, cell-based, Oocyte
T2 sequence (P14867 whole entry): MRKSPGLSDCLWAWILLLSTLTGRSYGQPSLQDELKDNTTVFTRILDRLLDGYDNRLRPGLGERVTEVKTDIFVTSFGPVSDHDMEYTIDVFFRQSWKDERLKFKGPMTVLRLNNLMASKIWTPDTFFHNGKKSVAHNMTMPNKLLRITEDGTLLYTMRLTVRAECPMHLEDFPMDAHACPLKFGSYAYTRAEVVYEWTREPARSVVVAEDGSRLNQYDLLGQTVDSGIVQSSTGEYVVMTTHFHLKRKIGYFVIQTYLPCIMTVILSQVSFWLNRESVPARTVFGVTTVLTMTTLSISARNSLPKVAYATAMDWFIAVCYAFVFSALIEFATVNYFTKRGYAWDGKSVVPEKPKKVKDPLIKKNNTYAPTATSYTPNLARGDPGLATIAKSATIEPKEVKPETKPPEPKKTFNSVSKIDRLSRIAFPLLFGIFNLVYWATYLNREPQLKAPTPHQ
T2 sequence (P18507 whole entry): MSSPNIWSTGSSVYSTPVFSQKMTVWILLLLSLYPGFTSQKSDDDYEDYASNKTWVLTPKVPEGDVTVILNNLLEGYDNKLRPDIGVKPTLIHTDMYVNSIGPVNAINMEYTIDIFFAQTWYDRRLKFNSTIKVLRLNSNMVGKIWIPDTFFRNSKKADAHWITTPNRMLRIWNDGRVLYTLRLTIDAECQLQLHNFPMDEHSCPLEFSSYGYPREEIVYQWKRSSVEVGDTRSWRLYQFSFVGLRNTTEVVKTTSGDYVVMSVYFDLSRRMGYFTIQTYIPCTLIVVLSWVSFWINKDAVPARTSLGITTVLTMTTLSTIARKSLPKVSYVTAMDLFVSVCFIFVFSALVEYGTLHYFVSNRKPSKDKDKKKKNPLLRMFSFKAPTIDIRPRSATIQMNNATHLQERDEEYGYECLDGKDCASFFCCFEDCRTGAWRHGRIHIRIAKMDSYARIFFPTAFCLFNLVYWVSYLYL
T2 sequence (P28472 whole entry): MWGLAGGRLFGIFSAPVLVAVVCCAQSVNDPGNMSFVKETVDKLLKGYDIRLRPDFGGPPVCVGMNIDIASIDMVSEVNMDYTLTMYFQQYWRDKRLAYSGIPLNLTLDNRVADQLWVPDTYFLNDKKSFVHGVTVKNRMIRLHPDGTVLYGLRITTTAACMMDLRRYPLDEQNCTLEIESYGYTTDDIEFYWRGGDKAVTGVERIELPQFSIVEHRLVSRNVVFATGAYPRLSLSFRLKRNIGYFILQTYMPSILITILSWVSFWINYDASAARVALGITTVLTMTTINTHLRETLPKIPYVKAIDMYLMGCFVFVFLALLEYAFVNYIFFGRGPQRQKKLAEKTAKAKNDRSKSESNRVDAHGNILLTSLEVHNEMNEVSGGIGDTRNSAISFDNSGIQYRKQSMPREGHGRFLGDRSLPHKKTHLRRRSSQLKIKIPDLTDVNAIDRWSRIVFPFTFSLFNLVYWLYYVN

[3] = biological target: T3, GABA A receptor alpha-4/beta-3/gamma-2 (Homo sapiens, UniProt P18507+P28472+P48169); test: Antagonistic potency against human […] Gamma-aminobutyric acid A receptor alpha-4-beta-3-gamma-2; assay type: functional
[4] = biological target: T4, GABA-A receptor; alpha-5/beta-3/gamma-2 (Homo sapiens, UniProt P18507+P28472+P31644); test: Antagonistic potency against human Gamma-aminobutyric acid A receptor alpha-5-beta-3-gamma-2 expressed in Xenopus oocytes at 1 mM; assay type: functional, cell-based, Oocyte
T4 sequence (P18507 whole entry): T2 sequence (P18507 whole entry)
T4 sequence (P28472 whole entry): T2 sequence (P28472 whole entry)
T4 sequence (P31644 whole entry): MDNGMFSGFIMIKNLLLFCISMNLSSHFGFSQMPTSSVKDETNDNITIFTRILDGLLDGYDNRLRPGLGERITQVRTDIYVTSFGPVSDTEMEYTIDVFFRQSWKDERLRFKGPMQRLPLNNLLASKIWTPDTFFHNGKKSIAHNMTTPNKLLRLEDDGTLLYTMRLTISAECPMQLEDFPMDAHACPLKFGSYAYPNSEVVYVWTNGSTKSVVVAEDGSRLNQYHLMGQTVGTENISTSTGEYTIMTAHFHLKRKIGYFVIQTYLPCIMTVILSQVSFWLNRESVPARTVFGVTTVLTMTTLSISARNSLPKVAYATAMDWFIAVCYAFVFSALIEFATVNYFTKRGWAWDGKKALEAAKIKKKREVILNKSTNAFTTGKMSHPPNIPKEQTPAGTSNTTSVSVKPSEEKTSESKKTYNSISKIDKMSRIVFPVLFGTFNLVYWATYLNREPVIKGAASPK

[5] = biological target: T5, GABA-A receptor; alpha-3/beta-3/gamma-2 (Homo sapiens, UniProt P18507+P28472+P34903); test: Antagonistic potency against human Gamma-aminobutyric acid A receptor alpha-3-beta-3-gamma-2 expressed in Xenopus oocytes at 1 mM; assay type: functional, cell-based, Oocyte
T5 sequence (P18507 whole entry): T2 sequence (P18507 whole entry)
T5 sequence (P28472 whole entry): T2 sequence (P28472 whole entry)
T5 sequence (P34903 whole entry): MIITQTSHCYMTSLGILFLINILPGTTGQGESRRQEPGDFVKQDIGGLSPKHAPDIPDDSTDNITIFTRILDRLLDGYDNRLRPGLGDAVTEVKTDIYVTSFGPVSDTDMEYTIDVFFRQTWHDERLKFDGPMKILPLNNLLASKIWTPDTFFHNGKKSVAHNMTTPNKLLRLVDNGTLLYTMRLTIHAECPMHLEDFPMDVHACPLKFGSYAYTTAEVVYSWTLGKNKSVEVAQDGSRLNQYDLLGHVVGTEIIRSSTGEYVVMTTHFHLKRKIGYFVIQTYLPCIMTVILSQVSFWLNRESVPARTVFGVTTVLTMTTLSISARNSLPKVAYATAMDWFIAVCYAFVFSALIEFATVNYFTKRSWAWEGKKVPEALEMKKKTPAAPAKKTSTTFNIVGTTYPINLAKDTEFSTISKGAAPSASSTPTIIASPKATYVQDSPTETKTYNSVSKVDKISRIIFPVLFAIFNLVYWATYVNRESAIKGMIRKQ

[6] = biological target: T6, GABA-A receptor; alpha-2/beta-3/gamma-2 (Homo sapiens, UniProt P18507+P28472+P47869); test: Antagonistic potency against human Gamma-aminobutyric acid A receptor alpha-2-beta-3-gamma-2 expressed in Xenopus oocytes at 1 mM; assay type: functional, cell-based, Oocyte
T6 sequence (P18507 whole entry): T2 sequence (P18507 whole entry)
T6 sequence (P28472 whole entry): T2 sequence (P28472 whole entry)
T6 sequence (P47869 whole entry): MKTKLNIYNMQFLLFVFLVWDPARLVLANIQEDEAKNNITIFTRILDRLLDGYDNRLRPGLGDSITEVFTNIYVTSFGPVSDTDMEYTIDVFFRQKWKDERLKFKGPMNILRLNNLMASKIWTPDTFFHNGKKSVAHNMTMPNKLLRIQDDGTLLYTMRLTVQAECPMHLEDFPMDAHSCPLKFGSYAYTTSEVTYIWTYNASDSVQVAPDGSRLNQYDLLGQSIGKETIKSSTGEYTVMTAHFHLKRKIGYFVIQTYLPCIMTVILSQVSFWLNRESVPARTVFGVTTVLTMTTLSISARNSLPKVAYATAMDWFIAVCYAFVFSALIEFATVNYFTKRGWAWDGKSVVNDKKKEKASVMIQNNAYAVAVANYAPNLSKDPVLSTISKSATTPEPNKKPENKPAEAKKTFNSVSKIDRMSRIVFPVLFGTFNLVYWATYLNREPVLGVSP

[7] = biological target: GABA-A receptor; alpha-1/beta-3/gamma-2 (Homo sapiens) (UniProt P14867+P18507+P28472); test: Maximal response relative to Gamma-aminobutyric acid A against human Gamma-aminobutyric-acid A receptor alpha-1-beta-3-gamma-2 expressed in Xenopus oocytes; assay type: functional, cell-based; details: Oocyte
[8] = biological target: GABA-A receptor; alpha-3/beta-3/gamma-2 (Homo sapiens) (UniProt P18507+P28472+P34903); test: Maximal response relative to Gamma-aminobutyric acid A against human Gamma-aminobutyric-acid A receptor alpha-3-beta-3-gamma-2 expressed in Xenopus oocytes; assay type: functional, cell-based; details: Oocyte
[9] = biological target: T6, GABA-A receptor; alpha-2/beta-3/gamma-2; test: Agonist activity on human Gamma-aminobutyric acid A receptor alpha-2-beta-3-gamma-2 expressed in Xenopus oocytes; assay type: functional, cell-based, Oocyte
[10] = biological target: T3, GABA A receptor alpha-4/beta-3/gamma-2; test: Maximal response relative to Gamma-aminobutyric acid A against human Gamma-aminobutyric-acid A receptor alpha-4-beta-3-gamma-2 expressed in Xenopus oocytes; assay type: functional, cell-based; details: Oocyte
[11] = biological target: T1, GABA-A receptor; alpha-6/beta-3/gamma-2; test: Maximal response relative to Gamma-aminobutyric acid A against human Gamma-aminobutyric-acid A receptor alpha-6-beta-3-gamma-2 expressed in Xenopus oocytes; assay type: functional, cell-based; details: Oocyte
[12] = biological target: T3, GABA A receptor alpha-4/beta-3/gamma-2; test: Effective agonist dose for human Gamma-aminobutyric acid A receptor alpha-4-beta-3-gamma-2; assay type: functional
[13] = biological target: T1, GABA-A receptor; alpha-6/beta-3/gamma-2; test: Effective agonist dose for human Gamma-aminobutyric acid A receptor alpha-6-beta-3-gamma-2; assay type: functional
[14] = biological target: T5, GABA-A receptor; alpha-3/beta-3/gamma-2; test: Agonist activity on human Gamma-aminobutyric acid A receptor alpha-3-beta-3-gamma-2 expressed in Xenopus oocytes; assay type: functional, cell-based, Oocyte
[15] = biological target: GABA-A receptor; alpha-2/beta-3/gamma-2 (Homo sapiens) (UniProt P18507+P28472+P47869); test: Maximal response relative to Gamma-aminobutyric acid A against human Gamma-aminobutyric-acid A receptor alpha-2-beta-3-gamma-2 expressed in Xenopus oocytes; assay type: functional, cell-based; details: Oocyte
[16] = biological target: T2, GABA-A receptor; alpha-1/beta-3/gamma-2; test: Effective agonist dose for human Gamma-aminobutyric acid A receptor alpha-1-beta-3-gamma-2 expressed in Xenopus oocytes; assay type: functional, cell-based, Oocyte
[17] = biological target: GABA-A receptor; alpha-5/beta-3/gamma-2 (Homo sapiens) (UniProt P18507+P28472+P31644); test: Maximal response relative to Gamma-aminobutyric acid A against human Gamma-aminobutyric-acid A receptor alpha-5-beta-3-gamma-2 expressed in Xenopus oocytes; assay type: functional, cell-based; details: Oocyte
[18] = biological target: T4, GABA-A receptor; alpha-5/beta-3/gamma-2; test: Effective agonist dose for human Gamma-aminobutyric acid A receptor alpha-5-beta-3-gamma-2 expressed in Xenopus oocytes; assay type: functional, cell-based, Oocyte
[19] = biological target: T5, GABA-A receptor; alpha-3/beta-3/gamma-2; test: Effective dose for agonist activity on activity on human Gamma-aminobutyric acid A receptor alpha-3-beta-3-gamma-2 expressed in Xenopus oocytes; assay type: functional, cell-based, Oocyte

T3 sequence (P48169 whole entry, one chain of several): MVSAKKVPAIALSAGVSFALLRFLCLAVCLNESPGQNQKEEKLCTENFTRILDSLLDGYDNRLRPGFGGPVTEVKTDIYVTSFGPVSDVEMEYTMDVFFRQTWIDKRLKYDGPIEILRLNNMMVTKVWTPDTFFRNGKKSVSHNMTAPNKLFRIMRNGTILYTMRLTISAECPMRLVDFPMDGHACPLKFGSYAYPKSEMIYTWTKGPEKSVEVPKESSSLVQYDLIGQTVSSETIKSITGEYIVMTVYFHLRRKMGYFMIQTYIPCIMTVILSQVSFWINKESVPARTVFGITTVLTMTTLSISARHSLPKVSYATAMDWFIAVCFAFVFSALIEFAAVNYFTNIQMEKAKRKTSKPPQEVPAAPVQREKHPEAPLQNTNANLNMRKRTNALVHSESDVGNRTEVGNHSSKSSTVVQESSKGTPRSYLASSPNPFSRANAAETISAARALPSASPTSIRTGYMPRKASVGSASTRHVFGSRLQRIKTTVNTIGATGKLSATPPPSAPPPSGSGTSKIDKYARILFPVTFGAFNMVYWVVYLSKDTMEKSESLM
T1 sequence (Q16445 whole entry, one chain of several): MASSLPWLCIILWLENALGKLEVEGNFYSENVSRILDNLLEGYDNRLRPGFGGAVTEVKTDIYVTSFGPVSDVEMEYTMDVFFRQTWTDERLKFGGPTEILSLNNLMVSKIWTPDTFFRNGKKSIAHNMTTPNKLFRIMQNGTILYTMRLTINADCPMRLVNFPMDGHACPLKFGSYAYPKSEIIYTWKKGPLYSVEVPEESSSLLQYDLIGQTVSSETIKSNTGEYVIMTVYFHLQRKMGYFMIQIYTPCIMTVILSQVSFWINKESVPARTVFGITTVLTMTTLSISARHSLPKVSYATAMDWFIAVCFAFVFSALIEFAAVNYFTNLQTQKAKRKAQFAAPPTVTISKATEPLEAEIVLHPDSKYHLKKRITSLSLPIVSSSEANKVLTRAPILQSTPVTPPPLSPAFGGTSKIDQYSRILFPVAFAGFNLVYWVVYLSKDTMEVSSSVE

Structure (SMILES) | Ki [1] [µM] | Ki [2] [µM] | Ki [3] [µM] | Ki [4] [µM] | Ki [5] [µM] | Ki [6] [µM] | Max [7] | Max [8] | EC50 [9] [µM] | Max [10] | Max [11] | EC50 [12] [µM] | EC50 [13] [µM] | EC50 [14] [µM] | Max [15] | EC50 [16] [µM] | Max [17] | EC50 [18] [µM] | EC50 [19] [µM]
CP(=O)(O)C1CCNCC1 | 460 | 310 | 340 | 420 | 300 | 600 |  |  |  |  |  |  |  |  |  |  |  |  | 
O=C(O)Cc1c[nH]cn1 [IMIDAZOLE ACETIC ACID] |  |  |  |  |  |  | 24 | 54 | 600 | 27 | 25 | 340 | 460 | 300 | 72 | 310 | 56 | 420 | 
NCCC[Se](=O)O |  |  |  |  |  |  | 30 | 33 | 1500 | 16 | 51 | 2100 | 3000 | 4900 | 47 | 1400 | 58 | 1900 | 
O=C(O)C1=CCNCC1 [ISOGUVACINE] |  |  |  |  |  |  | 88 | 69 | 50 | 88 | 98 | 180 | 20 | 55 | 88 | 160 | 94 | 75 | 
O=P(O)(O)C1CCNCC1 | 4800 | 3300 | 3100 | 2800 | 3800 | 2100 |  |  |  |  |  |  |  |  |  |  |  |  | 
O=[PH](O)C1CCNCC1 |  |  |  |  |  |  | 5 | 29 | 280 | 0 | 35 | 140 | 140 | 160 | 17 | 270 | 17 | 260 | 
O=C(O)C1CCNCC1 [ISONIPECOTIC ACID] |  |  |  |  |  |  | 46 | 46 | 420 | 104 | 83 | 300 | 160 |  | 53 | 620 | 57 | 690 | 370
O=S(=O)(O)C1CCNCC1 |  |  |  |  |  |  | 21 | 75 | 26 | 7.2 | 15 | 200 | 20 | 65 | 96 | 40 | 92 | 20 | 
NCCCC(=O)O |  |  |  |  |  |  | 100 | 100 |  | 100 | 100 |  |  |  | 100 |  | 100 |  | 
O=[PH](O)C1(O)CCNCC1 | 3000 | 1400 | 2100 | 1900 | 4900 | 1500 |  |  |  |  |  |  |  |  |  |  |  |  | 
